# Results as given in paper PMC6945062, “Aβ43‐producing PS1 FAD mutants cause altered substrate interactions and respond to γ‐secretase modulation” (EMBO Reports, 2019).
# Experiments:
# [1] = system: PS1 WT or FAD mutant γ‐secretase; test: ELISA of Aβ species in conditioned media of HEK293/sw cells overexpressing WT or mutant PS1; assay type: cell-based, human
# Procedure: For GSM treatments, the cells were grown to a confluence of 70–80%. Thereafter, medium was changed to fresh medium containing either DMSO vehicle control or GSM at the indicated concentration and the cells were incubated for 16–18 h before Aβ analysis of conditioned medium. […] Mouse N2a cells stably overexpressing swAPP were cultured in DMEM (high glucose) supplemented with 10% FCS and 1 mM sodium pyruvate and treated with GSM as described above.
# (§1) Immunoblot analysis of PS1 and PS2, NCT, full‐length APP, C‐terminal APP fragments, secreted APPs, and Aβ was performed as described 52. To analyze GSM dose responses and determine IC50 values for Aβ42 inhibition, secreted Aβ species of HEK293/sw cells were analyzed by sandwich immunoassay (MSD) using SULFO‐tagged C‐terminal specific antibodies to Aβ38, Aβ40, and Aβ42 as described before 26 or, in case of H4/sw and N2a/sw cells by an Aβ42 AlphaLISA immunoassay kit according to the instructions of the supplier (PerkinElmer). Notch1 cleavage reporter assay was carried out as described 51. GSM‐mediated changes of secreted Aβ species in conditioned medium of PS1 WT or mutant expressing HEK293/sw cells were quantified by ELISA using end‐specific C‐terminal antibodies to Aβ38, Aβ40, Aβ42, and Aβ43 obtained from IBL as described previously 16. Mass spectrometry analysis of secreted Aβ species was performed after immunoprecipitation using antibody 4G8 as described previously 17. Individual Aβ species were analyzed by immunoblotting, using Tris–Bicine urea SDS–PAGE 53. To improve the separation of longer Aβ species (e.g., Aβ42/43), the separation gel was adjusted to 8% acrylamide and 8 M urea. Aβ37 and Aβ38 generated in cell‐free γ‐secretase assays were analyzed by sandwich immunoassay (MSD) as above using SULFO‐tagged species‐specific antibodies. AICD generation in these assays was analyzed by immunoblotting with Penta‐His antibody after sample separation on 10–20% Tris–Tricine gels (Invitrogen). Protein bands from immunoblots were quantified using the LAS‐4000 image reader (Fujifilm Life Science) and Multi‐Gauge V3.0 software for analysis.
# C99 V44Bpa [2] = test: photocrosslinking of C99 V44Bpa to full-length PS1, immunoblot quantitation; details: box plot median, n = 7–11 biological replicates, read off a plot
# C99 V44Bpa [3] = test: photocrosslinking of C99 V44Bpa to PS1 NTF, immunoblot quantitation; details: box plot median, n = 7–11 biological replicates, read off a plot
# Solubility = assay type: physicochemical
# From the text: Supplement EMBR-21-e47996-s003.docx, table 1: Table EV1. RO7019009 key physicochemical and pharmacokinetic properties predicting CNS drug-likeness | column: Solubility (µg/ml)
# [4] = system: CHAPSO‐solubilized γ‐secretase; test: Cell‐free γ‐secretase assay with recombinant C100‐His6 (AICD generation); assay type: biochemical, human; details: 2.5 μM, WT and mutant PS1
# Procedure: as §1, with “Mass spectrometry analysis of secreted Aβ species was performed after immunoprecipitation using antibody 4G8 as described previously 17.” left out, “To improve the separation of longer Aβ species (e.g., Aβ42/43), the separation gel was adjusted to 8% acrylamide and 8 M urea.” left out, “analysis. […]” for “analysis.”
# [5] = system: C99–PS1 interaction (CHAPSO‐solubilized γ‐secretase); test: C99 V44Bpa photocrosslinking to PS1 in CHAPSO lysates; assay type: binding, human
# Procedure: Bpa‐containing C99‐based γ‐secretase substrates were prepared as described previously 22. CHAPSO‐lysates were prepared from HEK293/sw cells co‐expressing either PS1 WT or PS1 mutants. Photocrosslinking was performed as described before 22. Crosslinking of the substrates was analyzed by immunoblotting using antibodies against the PS1 NTF as described 22. For substrate crosslinking experiments in the presence of RO7019009, the cell lysates were pre‐incubated for 30 min on ice with RO7019009 or DMSO vehicle before the addition of C99 V44Bpa and subsequent photocrosslinking.
# [6] = LogD (octanol-water distribution coefficient); assay type: physicochemical; details: pH 7.4
# From the text: (§2) ^aLogD= logarithm of the octanol-water distribution coefficient at pH 7.4; ^bPAMPA: Parallel artificial membrane parallel assay; ^cCLmicr (h/m): human/mouse microsomal clearance
# [7] = Human microsomal clearance; assay type: in vitro ADME; details: human microsomes, read-out: CLmicr human microsomal clearance
# From the text: as §2
# PAMPA permeability = assay type: in vitro ADME
# From the text: as §2
# [8] = system: PS1 WT or FAD mutant γ‐secretase; test: Mass spectrometry analysis of Aβ species from HEK293/sw cells overexpressing WT or mutant PS1; assay type: cell-based, human; details: all mutants, 500 nM
# Procedure: (§3) Single‐cell clones of HEK293 cells stably co‐expressing swAPP with WT and mutant PS1 constructs were cultured as described 50. For GSM treatments, the cells were grown to a confluence of 70–80%. Thereafter, medium was changed to fresh medium containing either DMSO vehicle control or GSM at the indicated concentration and the cells were incubated for 16–18 h before Aβ analysis of conditioned medium. Single‐cell clones of H4 overexpressing swAPP and HEK293‐based Notch1 reporter cell lines were cultured and treated with GSM as described 51. […]
# (§4) Immunoblot analysis of PS1 and PS2, NCT, full‐length APP, C‐terminal APP fragments, secreted APPs, and Aβ was performed as described 52. To analyze GSM dose responses and determine IC50 values for Aβ42 inhibition, secreted Aβ species of HEK293/sw cells were analyzed by sandwich immunoassay (MSD) using SULFO‐tagged C‐terminal specific antibodies to Aβ38, Aβ40, and Aβ42 as described before 26 or, in case of H4/sw and N2a/sw cells by an Aβ42 AlphaLISA immunoassay kit according to the instructions of the supplier (PerkinElmer). […] GSM‐mediated changes of secreted Aβ species in conditioned medium of PS1 WT or mutant expressing HEK293/sw cells were quantified by ELISA using end‐specific C‐terminal antibodies to Aβ38, Aβ40, Aβ42, and Aβ43 obtained from IBL as described previously 16. […]
# Notch1 cleavage = test: HEK293 cell‐based Notch1 luciferase reporter assay; details: Homo sapiens; HEK293‐based Notch1 luciferase reporter cell line; n = 2
# Procedure: as §3, §4
# [9] = Mouse microsomal clearance; assay type: in vitro ADME; details: mouse microsomes, read-out: CLmicr mouse microsomal clearance
# From the text: as §2
# [10] = system: γ‐secretase (total Aβ secretion in HEK293/sw cells); test: Immunoblot analysis of total Aβ in conditioned media of HEK293/sw cells; assay type: cell-based, human
# Procedure: as §3, §4
# [11] = PS1 L166P mutant, HEK293/sw cells
# [12] = PS1 R278I and L166P mutants, HEK293/sw cells
# [13] = PS1 R278I mutant, HEK293/sw cells
# [14] = RO7019009 50 nM, parent: est. 1.0
# [15] = RO7019009 500 nM, parent: est. 0.90
# [16] = RO7019009 2500 nM, parent: est. 0.49
Molecule,"other: V44 CL efficiency (Rel. to DMSO-treated), median (C99 V44Bpa [2]; RO7019009 50 nM)","other: V44 CL efficiency (Rel. to DMSO-treated), median (C99 V44Bpa [2]; RO7019009 500 nM)","other: V44 CL efficiency (Rel. to DMSO-treated), median (C99 V44Bpa [2]; RO7019009 2500 nM)","other: V44 CL efficiency (Rel. to DMSO-treated), median (C99 V44Bpa [3]; [14])","other: V44 CL efficiency (Rel. to DMSO-treated), median (C99 V44Bpa [3]; [15])","other: V44 CL efficiency (Rel. to DMSO-treated), median (C99 V44Bpa [3]; [16])",further results
COc1cc(Nc2cc(Cc3ccc(Cl)cc3)cc(C(C)(C)O)c2)ccc1-n1cnc(C)c1 [RO‐02],,,,,,,"Aβ43 production [1, 11]: only poorly, if at all; Aβ42 levels [1, 12]: remained unaffected; Aβ43 production [1, 13]: weakly reduced"
presenilin 1 (PS1) WT (from UniProt P49768) V261F,0.95,0.65,0.62,,,,
CC(C)CC[C@H](c1ccc(Cl)cc1)N1CC[C@@H](CC(=O)O)C[C@H]1c1ccc(C(F)(F)F)cc1 [GSM‐1],,,,,,,"Aβ43 production [1, 11]: only poorly, if at all; Aβ42 levels [1, 12]: remained unaffected; Aβ43 production [1, 13]: weakly reduced"
presenilin 1 (PS1) WT (from UniProt P49768) L435F,1,0.78,0.6,,,,
presenilin 1 (PS1) WT (from UniProt P49768) L166P,,,,1,0.93,0.73,
presenilin 1 (PS1) WT (from UniProt P49768) Y256S,,,,1.1,0.88,0.95,
presenilin 1 (PS1) WT (from UniProt P49768) M292D,1.1,0.92,0.65,,,,
Cc1nsc(N2C[C@H]3CC[C@@H](C2)[C@@H]3Nc2nc3c(-c4ccc(F)c(F)c4F)cccn3n2)n1 [RO7019009],,,,,,,"solubility (Solubility): 3 µg/mL; total AICD generation [4]: not or only marginally reduced; Aβ42 levels ([1]; PS1 L166P mutant, 50 to 500 nM): remained largely unaffected; Aβ42‐lowering response ([1]; PS1 V261F and R278I mutants, 50 to 500 nM): partially resistant; Aβ42 levels ([1]; V261F, R278I and L166P mutants, 500 nM): small, yet significant, reproducible reduction; generation of Aβ43 ([1]; all PS1 mutants, 50 to 500 nM): reduced the generation of Aβ43 for all mutants; crosslinking of C99 V44Bpa to PS1 ([5]; PS1 Y256S and R278I mutants): unchanged crosslinking; crosslinking of C99 V44Bpa to PS1 NTF ([5]; WT PS1, increasing concentrations): reduced; logD [6]: 4; microsomal CLint [7]: < 10 µL/min/mg; PAMPA (permeability) (PAMPA permeability): High; Aβ40 levels [8]: nearly complete reduction; IC50 (Notch1 cleavage): > 10 µM; microsomal CLint [9]: < 10 µL/min/mg; total Aβ levels [10]: did not reduce"
presenilin 1 (PS1) WT (from UniProt P49768) R278I,1,1,0.92,,,,
presenilin 1 (PS1) WT (from UniProt P49768) G382A,,,,0.93,0.87,0.67,
